From paper PMC9636434, “Discovery of small molecule agonists of the Relaxin Family Peptide Receptor 2” (Communications Biology, 2022)
Like-named read-outs stand apart in the source and are kept apart here.

Experiment: Pharmacokinetic study, 3 mg/kg IV, 10 mg/kg PO and 10 mg/kg PO QD*3, plasma, liver and bone
Assay type: in vivo, mouse
Settings: female, mouse
Protocol: The concentration of compound in plasma, liver, and long bones was detected using liquid chromatography tandem mass spectrometry (LC-MS/MS). Samples were collected after a single intraperitoneal (IP) administration at 30 mg/kg, a single intravenous (IV) administration at 3 mg/kg, a single oral (PO) administration at 10 mg/kg, and a daily PO administration for 3 consecutive days at 10 mg/kg. The compound was formulated in 75% PEG300 + 25% of 40% aq. HPBCD for IV and PO administration and in 60% Phosal + 40% PEG300 for IP administration. All tissue samples were homogenized in water at a tissue weight to water volume ratio 1:3.
IV administration, one 10 mg/kg PO administration and three 10 mg/kg PO administrations (QD*3). a Plasma, b liver and c bone profiles in female mice. The actual concentration (ng/g) is the detected value (ng/mL) multiplied by 4. Drug vehicle is 25% aq. 40% HP-b-CD - 75% PEG300. 3 mice were used per time point. Results are expressed as the mean ± SEM.

With `O=C1Nc2ccc(-c3cc(C(F)(F)F)cc(C(F)(F)F)c3)cc2C(=O)N2CCN(C(=O)COc3ccc(OC(F)(F)F)cc3I)C[C@@H]12` [compound 6641] the concentration at 0.25 h (C57BL/6J, bone (long bones), po, 10 mg/kg, bone, PO, 0.25 h, individual animals, read-out: Bone 6641 PO concentration) was 5.39 ng/g, the concentration at 0.5 h (C57BL/6J, bone (long bones), po, 10 mg/kg, bone, PO, 0.5 h, individual animals, read-out: Bone 6641 PO concentration) was 27.1 ng/g and the concentration at 1 h (C57BL/6J, bone (long bones), po, 10 mg/kg, bone, PO, 1 h, individual animals, read-out: Bone 6641 PO concentration) was 114 ng/g. For the same compound, the concentration at 3 h (C57BL/6J, bone (long bones), po, 10 mg/kg, bone, PO, 3 h, individual animals, read-out: Bone 6641 PO concentration) was 140 ng/g, the concentration at 0.083 h (C57BL/6 J, liver, iv, 3 mg/kg, liver, IV, 0.083 h, individual animals, read-out: Liver 6641 IV concentration) was 26000 ng/g and the concentration at 0.25 h (C57BL/6 J, liver, iv, 3 mg/kg, liver, IV, 0.25 h, individual animals, read-out: Liver 6641 IV concentration) was 17200 ng/g. For the same compound, the concentration at 0.5 h (C57BL/6J, liver, iv, 3 mg/kg, liver, IV, 0.5 h, individual animals, read-out: Liver 6641 IV concentration) was 8740 ng/g, the concentration at 3 h (C57BL/6J, liver, iv, 3 mg/kg, liver, IV, 3 h, individual animals, read-out: Liver 6641 IV concentration) was 1570 ng/g and the concentration at 7 h (C57BL/6 J, liver, iv, 3 mg/kg, liver, IV, 7 h, individual animals, read-out: Liver 6641 IV concentration) was 474 ng/g. It also gave a concentration at 24 h (C57BL/6 J, liver, iv, 3 mg/kg, liver, IV, 24 h, individual animals, read-out: Liver 6641 IV concentration) of 28 ng/g, a concentration at 0.083 h (C57BL/6 J, liver, po, 10 mg/kg, liver, PO (QD*3), 0.083 h, individual animals, read-out: Liver 6641 PO (QD*3) concentration) of 44.1 ng/g and a concentration at 1 h (C57BL/6J, liver, po, 10 mg/kg, liver, PO (QD*3), 1 h, individual animals, read-out: Liver 6641 PO (QD*3) concentration) of 3320 ng/g. The concentration at 3 h (C57BL/6J, liver, po, 10 mg/kg, liver, PO (QD*3), 3 h, individual animals, read-out: Liver 6641 PO (QD*3) concentration) was 1900 ng/g, the concentration at 7 h (C57BL/6 J, liver, po, 10 mg/kg, liver, PO (QD*3), 7 h, individual animals, read-out: Liver 6641 PO (QD*3) concentration) was 1010 ng/g and the concentration at 24 h (C57BL/6 J, liver, po, 10 mg/kg, liver, PO (QD*3), 24 h, individual animals, read-out: Liver 6641 PO (QD*3) concentration) was 32.3 ng/g. For the same compound, the concentration at 0.083 h (C57BL/6 J, liver, po, 10 mg/kg, liver, PO, 0.083 h, individual animals, N/A: Below detection level, read-out: Liver 6641 PO concentration) was 5.14 ng/g, the concentration at 0.25 h (C57BL/6 J, liver, po, 10 mg/kg, liver, PO, 0.25 h, individual animals, read-out: Liver 6641 PO concentration) was 321 ng/g and the concentration at 1 h (C57BL/6J, liver, po, 10 mg/kg, liver, PO, 1 h, individual animals, read-out: Liver 6641 PO concentration) was 3040 ng/g. The concentration at 3 h (C57BL/6J, liver, po, 10 mg/kg, liver, PO, 3 h, individual animals, read-out: Liver 6641 PO concentration) was 1940 ng/g, the concentration at 7 h (C57BL/6 J, liver, po, 10 mg/kg, liver, PO, 7 h, individual animals, read-out: Liver 6641 PO concentration) was 1210 ng/g and the concentration at 24 h (C57BL/6 J, liver, po, 10 mg/kg, liver, PO, 24 h, individual animals, read-out: Liver 6641 PO concentration) was 28.5 ng/g. The concentration at 48 h (C57BL/6 J, liver, po, 10 mg/kg, liver, PO, 48 h, individual animals, read-out: Liver 6641 PO concentration) was 2.88 ng/g, the concentration at 0.083 h (C57BL/6 J, plasma, iv, 3 mg/kg, IV, Time 0.083 h, individual values (1)-(3), read-out: Plasma concentration) was 2030 ng/mL and the concentration at 0.25 h (C57BL/6 J, plasma, iv, 3 mg/kg, IV, Time 0.25 h, individual values (1)-(3), read-out: Plasma concentration) was 1260 ng/mL. It also gave a concentration at 0.5 h (C57BL/6 J, plasma, iv, 3 mg/kg, IV, Time 0.5 h, individual values (1)-(3), read-out: Plasma concentration) of 721 ng/mL, a concentration at 1 h (C57BL/6 J, plasma, iv, 3 mg/kg, IV, Time 1 h, individual values (1)-(3), read-out: Plasma concentration) of 343 ng/mL and a concentration at 3 h (C57BL/6 J, plasma, iv, 3 mg/kg, IV, Time 3 h, individual values (1)-(3), read-out: Plasma concentration) of 220 ng/mL. For the same compound, the concentration at 7 h (C57BL/6 J, plasma, iv, 3 mg/kg, IV, Time 7 h, individual values (1)-(3), read-out: Plasma concentration) was 67.6 ng/mL, the concentration at 24 h (C57BL/6 J, plasma, iv, 3 mg/kg, IV, Time 24 h, individual values (1)-(3), read-out: Plasma concentration) was 4.37 ng/mL and the concentration at 48 h (C57BL/6 J, plasma, iv, 3 mg/kg, IV, Time 48 h, individual values (1)-(3), N/A: Below detection level, read-out: Plasma concentration) was 0.874 ng/mL. For the same compound, the concentration at 0.083 h (C57BL/6 J, plasma, po, 10 mg/kg, PO (QD*3), Time 0.083 h, individual values (1)-(3), read-out: Plasma concentration) was 8.04 ng/mL, the concentration at 0.25 h (C57BL/6 J, plasma, po, 10 mg/kg, PO (QD*3), Time 0.25 h, individual values (1)-(3), read-out: Plasma concentration) was 95.9 ng/mL and the concentration at 1 h (C57BL/6 J, plasma, po, 10 mg/kg, PO (QD*3), Time 1 h, individual values (1)-(3), read-out: Plasma concentration) was 336 ng/mL. The concentration at 3 h (C57BL/6 J, plasma, po, 10 mg/kg, PO (QD*3), Time 3 h, individual values (1)-(3), read-out: Plasma concentration) was 264 ng/mL, the concentration at 7 h (C57BL/6 J, plasma, po, 10 mg/kg, PO (QD*3), Time 7 h, individual values (1)-(3), read-out: Plasma concentration) was 144 ng/mL and the concentration at 24 h (C57BL/6 J, plasma, po, 10 mg/kg, PO (QD*3), Time 24 h, individual values (1)-(3), read-out: Plasma concentration) was 5.56 ng/mL. It also gave a concentration at 48 h (C57BL/6 J, plasma, po, 10 mg/kg, PO (QD*3), Time 48 h, individual values (1)-(3), N/A: Below detection level, read-out: Plasma concentration) of 1.04 ng/mL, a concentration at 0.083 h (C57BL/6 J, plasma, po, 10 mg/kg, PO, Time 0.083 h, individual values (1)-(3), N/A: Below detection level, read-out: Plasma concentration) of 1.64 ng/mL and a concentration at 0.25 h (C57BL/6 J, plasma, po, 10 mg/kg, PO, Time 0.25 h, individual values (1)-(3), read-out: Plasma concentration) of 43.8 ng/mL. The concentration at 1 h (C57BL/6 J, plasma, po, 10 mg/kg, PO, Time 1 h, individual values (1)-(3), read-out: Plasma concentration) was 369 ng/mL, the concentration at 3 h (C57BL/6 J, plasma, po, 10 mg/kg, PO, Time 3 h, individual values (1)-(3), read-out: Plasma concentration) was 219 ng/mL and the concentration at 7 h (C57BL/6 J, plasma, po, 10 mg/kg, PO, Time 7 h, individual values (1)-(3), read-out: Plasma concentration) was 134 ng/mL. For the same compound, the concentration at 24 h (C57BL/6 J, plasma, po, 10 mg/kg, PO, Time 24 h, individual values (1)-(3), read-out: Plasma concentration) was 4.25 ng/mL and the concentration at 48 h (C57BL/6 J, plasma, po, 10 mg/kg, PO, Time 48 h, individual values (1)-(3), N/A: Below detection level, read-out: Plasma concentration) was 1.39 ng/mL.
